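Five compound concentrations were applied to cells in 96-well plates for 48 hours; endpoints were derived by simple linear interpolation of the resulting dose-response curve. The concentration for 50% growth inhibition is given as GI50.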 Activity calls are given as the source filed them. No stated cut-off is given here; in the data, active = GI50 up to about 1.1 µM and inactive = higher.
Columns and labels:
Test in all cases: inhibition of tumour cell growth, NCI panel, 48 h
786-0 = tested on: 786-0
A549 = tested on: A549
ACHN = tested on: ACHN
CAKI-1 = tested on: CAKI-1
CCRF-CEM = tested on: CCRF-CEM
COLO 205 = tested on: COLO 205
DLD-1 = tested on: DLD-1
DMS-114 = tested on: DMS-114
DMS-273 = tested on: DMS-273
HCT-116 = tested on: HCT-116
HCT-15 = tested on: HCT-15
HL-60 = tested on: HL-60
HOP-18 = tested on: HOP-18
HOP-62 = tested on: HOP-62
HOP-92 = tested on: HOP-92
HT-29 = tested on: HT-29
IGROV-1 = tested on: IGROV-1
K562 = tested on: K562
KM-20L2 = tested on: KM-20L2
KM12 = tested on: KM12
LOX IMVI = tested on: LOX IMVI
LXFL 529 = tested on: LXFL 529
M14 = tested on: M14
M19-MEL = tested on: M19-MEL
MOLT-4 = tested on: MOLT-4
Malme-3M = tested on: Malme-3M
NCI-H226 = tested on: NCI-H226
NCI-H23 = tested on: NCI-H23
NCI-H460 = tested on: NCI-H460
NCI-H522 = tested on: NCI-H522
OVCAR-3 = tested on: OVCAR-3
OVCAR-4 = tested on: OVCAR-4
OVCAR-5 = tested on: OVCAR-5
OVCAR-8 = tested on: OVCAR-8
RPMI-8226 = tested on: RPMI-8226
RXF 393 = tested on: RXF 393
SF-268 = tested on: SF-268
SF-295 = tested on: SF-295
SF-539 = tested on: SF-539
SK-MEL-28 = tested on: SK-MEL-28
SK-MEL-2 = tested on: SK-MEL-2
SK-MEL-5 = tested on: SK-MEL-5
SK-OV-3 = tested on: SK-OV-3
SN12C = tested on: SN12C
SNB-75 = tested on: SNB-75
SNB-78 = tested on: SNB-78
SR = tested on: SR
SW-620 = tested on: SW-620
TK-10 = tested on: TK-10
U-251 = tested on: U-251
UACC-257 = tested on: UACC-257
UACC-62 = tested on: UACC-62
UO-31 = tested on: UO-31
EKVX = tested on: EKVX
HCC 2998 = tested on: HCC 2998
SNB-19 = tested on: SNB-19
XF498 = tested on: XF498
A498 = tested on: A498

CC(=O)OC(CCC1(C)OC1COc1ccc(CCNC(=O)c2ccccc2)cc1)C(C)(C)OC(C)=O (configuration not stated)
GI50 (786-0): > 100 µM (inactive) | GI50 (A549): 13.1 µM (inactive) | GI50 (ACHN): 5 µM (inactive) | GI50 (CAKI-1): 19 µM (inactive) | GI50 (CCRF-CEM): 7.18 µM (inactive) | GI50 (COLO 205): 19.5 µM (inactive) | GI50 (DLD-1): 45 µM (inactive) | GI50 (DMS-114): 0.325 µM (active) | GI50 (DMS-273): 11 µM (inactive) | GI50 (HCT-116): 0.794 µM (active) | GI50 (HCT-15): 13.9 µM | GI50 (HL-60): 25.7 µM (inactive) | GI50 (HOP-18): > 100 µM (inactive) | GI50 (HOP-62): 15.5 µM (inactive) | GI50 (HOP-92): 74.6 µM (inactive) | GI50 (HT-29): 17.4 µM (inactive) | GI50 (IGROV-1): 39.5 µM (inactive) | GI50 (K562): 0.752 µM (active) | GI50 (KM-20L2): 30.1 µM (inactive) | GI50 (KM12): 15.6 µM (inactive) | GI50 (LOX IMVI): 2.18 µM (inactive) | GI50 (LXFL 529): 10.3 µM (inactive) | GI50 (M14): 15.1 µM (inactive) | GI50 (M19-MEL): 18.4 µM (inactive) | GI50 (MOLT-4): 4.19 µM (inactive) | GI50 (Malme-3M): 15.3 µM (inactive) | GI50 (NCI-H226): > 100 µM (inactive) | GI50 (NCI-H23): 0.302 µM (active) | GI50 (NCI-H460): 13.1 µM (inactive) | GI50 (NCI-H522): 22.9 µM (inactive) | GI50 (OVCAR-3): 10.3 µM (inactive) | GI50 (OVCAR-4): 19.7 µM (inactive) | GI50 (OVCAR-5): > 100 µM (inactive) | GI50 (OVCAR-8): 15.7 µM (inactive) | GI50 (RPMI-8226): 18.6 µM (inactive) | GI50 (RXF 393): 16.2 µM (inactive) | GI50 (SF-268): 74.8 µM (inactive) | GI50 (SF-295): 11.4 µM (inactive) | GI50 (SF-539): > 100 µM (inactive) | GI50 (SK-MEL-28): 22 µM (inactive) | GI50 (SK-MEL-2): 17.3 µM (inactive) | GI50 (SK-MEL-5): 1.1 µM (active) | GI50 (SK-OV-3): > 100 µM (inactive) | GI50 (SN12C): > 100 µM (inactive) | GI50 (SNB-75): 32.6 µM (inactive) | GI50 (SNB-78): 36.2 µM (inactive) | GI50 (SR): 0.493 µM (active) | GI50 (SW-620): > 100 µM (inactive) | GI50 (TK-10): 49.3 µM (inactive) | GI50 (U-251): 37.3 µM (inactive) | GI50 (UACC-257): 2.13 µM (inactive) | GI50 (UACC-62): 14.3 µM (inactive) | GI50 (UO-31): 29.4 µM (inactive)

CCN(CC)CCCNC(=O)Cc1ccccc1Nc1c(Cl)cccc1Cl
GI50 (786-0): 0.465 µM (active) | GI50 (A549): 18.3 µM (inactive) | GI50 (ACHN): 8.53 µM (inactive) | GI50 (CCRF-CEM): 11.7 µM (inactive) | GI50 (COLO 205): 13.7 µM (inactive) | GI50 (DLD-1): 15 µM (inactive) | GI50 (DMS-114): 13.6 µM (inactive) | GI50 (DMS-273): 14.9 µM (inactive) | GI50 (EKVX): 13.7 µM (inactive) | GI50 (HCC 2998): 3.01 µM (inactive) | GI50 (HCT-116): 14 µM (inactive) | GI50 (HCT-15): 14.9 µM | GI50 (HL-60): 11.8 µM (inactive) | GI50 (HOP-62): 16 µM (inactive) | GI50 (HT-29): 4.48 µM (inactive) | GI50 (IGROV-1): 18.4 µM (inactive) | GI50 (K562): 5.6 µM (inactive) | GI50 (KM-20L2): 3.81 µM (inactive) | GI50 (KM12): 19.8 µM (inactive) | GI50 (LOX IMVI): 12.3 µM (inactive) | GI50 (LXFL 529): 7.67 µM (inactive) | GI50 (M14): 2.82 µM (inactive) | GI50 (M19-MEL): 4.97 µM (inactive) | GI50 (MOLT-4): 11.4 µM (inactive) | GI50 (NCI-H226): 18.5 µM (inactive) | GI50 (NCI-H23): 17.9 µM (inactive) | GI50 (OVCAR-3): 16 µM (inactive) | GI50 (OVCAR-4): 15.7 µM (inactive) | GI50 (OVCAR-5): 11.4 µM (inactive) | GI50 (OVCAR-8): 16.2 µM (inactive) | GI50 (RPMI-8226): 12.4 µM (inactive) | GI50 (RXF 393): 15.8 µM (inactive) | GI50 (SF-268): 16.1 µM (inactive) | GI50 (SF-295): 18 µM (inactive) | GI50 (SF-539): 14.2 µM (inactive) | GI50 (SK-MEL-28): 12.5 µM (inactive) | GI50 (SK-MEL-5): 3.85 µM (inactive) | GI50 (SK-OV-3): 15.3 µM (inactive) | GI50 (SN12C): 14.5 µM (inactive) | GI50 (SNB-19): 16.9 µM (inactive) | GI50 (SNB-75): 8.75 µM (inactive) | GI50 (SNB-78): 15.9 µM (inactive) | GI50 (SR): 9.48 µM (inactive) | GI50 (SW-620): 16.8 µM (inactive) | GI50 (TK-10): 13.7 µM (inactive) | GI50 (U-251): 13 µM (inactive) | GI50 (UACC-257): 4.03 µM (inactive) | GI50 (UACC-62): 14.3 µM (inactive) | GI50 (UO-31): 11.2 µM (inactive) | GI50 (XF498): 8.13 µM (inactive)

Cc1ccc(C)c(N2C(=O)C(=O)C(c3nc4ccccc4o3)/C(=N\NC(=O)c3ccccc3O)C2=O)c1 (configuration not stated)
GI50 (786-0): 27.4 µM (inactive) | GI50 (A498): 13 µM (inactive) | GI50 (A549): 13.6 µM (inactive) | GI50 (ACHN): 12 µM (inactive) | GI50 (CAKI-1): 3.75 µM (inactive) | GI50 (CCRF-CEM): 4.09 µM (inactive) | GI50 (COLO 205): 24.2 µM (inactive) | GI50 (DLD-1): 28.9 µM (inactive) | GI50 (DMS-114): 20.1 µM (inactive) | GI50 (DMS-273): 6.14 µM (inactive) | GI50 (EKVX): 22.8 µM (inactive) | GI50 (HCC 2998): 67.3 µM (inactive) | GI50 (HCT-116): 17.5 µM (inactive) | GI50 (HCT-15): 18 µM | GI50 (HL-60): < 0.01 µM (active) | GI50 (HOP-18): 20.9 µM (inactive) | GI50 (HOP-62): 24.9 µM (inactive) | GI50 (HOP-92): 41.7 µM (inactive) | GI50 (HT-29): 32.1 µM (inactive) | GI50 (IGROV-1): 6.52 µM (inactive) | GI50 (K562): 16.4 µM (inactive) | GI50 (KM-20L2): 41.1 µM (inactive) | GI50 (LOX IMVI): 32.4 µM (inactive) | GI50 (LXFL 529): 31.8 µM (inactive) | GI50 (M14): 32.3 µM (inactive) | GI50 (M19-MEL): 64.7 µM (inactive) | GI50 (MOLT-4): 12.8 µM (inactive) | GI50 (Malme-3M): 66.1 µM (inactive) | GI50 (NCI-H226): 12.2 µM (inactive) | GI50 (NCI-H23): 10.7 µM (inactive) | GI50 (NCI-H522): 17.5 µM (inactive) | GI50 (OVCAR-3): 16.6 µM (inactive) | GI50 (OVCAR-4): 11.7 µM (inactive) | GI50 (OVCAR-5): 58.3 µM (inactive) | GI50 (OVCAR-8): 19.8 µM (inactive) | GI50 (RPMI-8226): 37.6 µM (inactive) | GI50 (SF-268): 12.2 µM (inactive) | GI50 (SF-295): 56.2 µM (inactive) | GI50 (SF-539): 19.1 µM (inactive) | GI50 (SK-MEL-28): > 100 µM (inactive) | GI50 (SK-MEL-2): 29.6 µM (inactive) | GI50 (SK-MEL-5): 38.5 µM (inactive) | GI50 (SK-OV-3): 87.1 µM (inactive) | GI50 (SN12C): 26.2 µM (inactive) | GI50 (SNB-19): 12.3 µM (inactive) | GI50 (SNB-75): 5.7 µM (inactive) | GI50 (SNB-78): 6.08 µM (inactive) | GI50 (SR): 30.1 µM (inactive) | GI50 (SW-620): 29.6 µM (inactive) | GI50 (TK-10): 44 µM (inactive) | GI50 (U-251): 24.4 µM (inactive) | GI50 (UACC-257): 23 µM (inactive) | GI50 (UACC-62): 5.68 µM (inactive) | GI50 (UO-31): 16.3 µM (inactive)

From ChEMBL document CHEMBL1201862, “PubChem BioAssay data set” (2004)
